Experiments:
RhoB promoter [1] = assay: RhoB promoter transcriptional activity (luciferase reporter) in human cancer cell lines A-549, Panc-1, C33A; assay type: cell-based; conditions: for RhoB Promoter transcriptional activity (% inhibition): vs pcDNA3 control
Excerpt: Gene Constructs and RhoB Promoter Transcriptional Activity Assay. Constitutively active H-Ras61L, K-RasV12, N-RasV12, and dominant negative […]-Ras were kind gifts from Dr. Channing Der (University of North Carolina) (Khosravi-Far, R. et al., Mol Cell Biol, 1995, 15:6443-53; Quilliam, L. A. et al., Mol Cell Biol, 1994, 14:1113-21). Wild-type RhoA and RhoB were subcloned into hemaglutinin (HA)-tagged pcDNA3 (INVITROGEN). The orientation and the sequences of these genes were confirmed by DNA sequencing facilities at the H. Lee Moffitt Cancer Center, Tampa, Fla. RhoB promoter construct pGEI was kindly provided by Dr Y. Monden (Banyu Tsukuba Research, Japan) (Nakamura et al., 1996). pCMV-β-galactosidase vector was purchased from INVITROGEN. The plasmid containing CA-, DN-PI3K, Mek and Akt were kindly provided by Dr. Julie Y. Djeu (H. Lee Moffitt Cancer and Research Institute, Tampa, Fla.) (Jiang, K. et al., Blood, 2003, 101:236-44). β-galactosidase activity and luciferase assay kits were purchased from PROMEGA Corporation, Madison, Wis. The serum response element (SRE) reporter was provided by Dr. Richard Jove, H. Lee Moffitt Cancer and Research Institute, Tampa, Fla. […] Richard Jove, Oncology program, H. Lee Moffitt Cancer and Research Institute, Tampa, Fla. […] Human EGFR, ErbB2 cDNA construct were kindly provided by Dr. Noreen Luetteke, H. Lee Moffitt Cancer and Research Institute, Tampa, Fla. (Luetteke, N. C. et al., Genes Dev, 1994, 8:399-413). DNA transfection was performed with the standard lipofectamine protocol (INVITROGEN). Briefly, cells were plated in 60-mm plates, pGEI plasmid was used at 2 μg per plate, whereas all the other plasmids were used at 0.1-1.0 μg per plate. After transfection the cells were grown for another 36-48 h. Cells were then washed twice with PBS and lyzed in Promega Passive Lysis Buffer. Aliquots of the lysates were then used to measure the luciferase and β-galactosidase activities. The luciferase values were first divided by β-galactosidase values. The RhoB promoter transcriptional activity was determined by dividing the luciferase/β-Gal values from oncogene-transfected cells by those from pcDNA3-transfected cells. […] All the samples were performed in triplicate and the averages of 3 independent experiments were reported here. Proteins that induce malignant transformation and those that suppress tumorigenesis most likely antagonize each other's functions. […] Du, W. et al., Mol Cell Biol, 1999, 19:1831-40; Du, W. and Prendergast, G. C., Cancer Res, 1999, 59:5492-6). An objective of the experiments described herein was to determine whether oncogenes that are prevalent in human cancers suppress RhoB expression, and whether RhoB antagonizes the ability of these oncogenes to induce malignant transformation. To this end, the effects of several oncogenes on RhoB promoter transcriptional activity were first evaluated. NIH3T3 cells and human cancer cell lines derived from lung (A-549), pancreatic (Panc-1) and cervical (C33A) tumors were transiently transfected with pcDNA3 empty vectors or pcDNA3 constructs containing various oncogenes along with full length RhoB promoter firefly luciferase reporter and SRE-renilla luciferase reporter as well as a β-gal reporter for controlling transfection efficiency as described in the Materials and Methods section.

RhoB promoter [2] = assay: RhoB promoter transcriptional activity in H-Ras/3T3 cells; assay type: cell-based; conditions: treated 12 hours (FIG. 6B)
Excerpt: The cell lysates were processed as in FIGS. 5A-5D. […] The cell lysates were processed as in FIGS. 5A-5D. […] The cell lysates were processed as in FIGS. 5A-5D. Gene Constructs and RhoB Promoter Transcriptional Activity Assay. Constitutively active H-Ras61L, K-RasV12, N-RasV12, and dominant negative […]-Ras were kind gifts from Dr. Channing Der (University of North Carolina) (Khosravi-Far, R. et al., Mol Cell Biol, 1995, 15:6443-53; Quilliam, L. A. et al., Mol Cell Biol, 1994, 14:1113-21). Wild-type RhoA and RhoB were subcloned into hemaglutinin (HA)-tagged pcDNA3 (INVITROGEN). The orientation and the sequences of these genes were confirmed by DNA sequencing facilities at the H. Lee Moffitt Cancer Center, Tampa, Fla. RhoB promoter construct pGEI was kindly provided by Dr Y. Monden (Banyu Tsukuba Research, Japan) (Nakamura et al., 1996). pCMV-β-galactosidase vector was purchased from INVITROGEN. The plasmid containing CA-, DN-PI3K, Mek and Akt were kindly provided by Dr. Julie Y. Djeu (H. Lee Moffitt Cancer and Research Institute, Tampa, Fla.) (Jiang, K. et al., Blood, 2003, 101:236-44). β-galactosidase activity and luciferase assay kits were purchased from PROMEGA Corporation, Madison, Wis. […] The RhoB promoter transcriptional activity was determined by dividing the luciferase/β-Gal values from oncogene-transfected cells by those from pcDNA3-transfected cells. […]

RhoB protein levels = assay: RhoB protein level by Western blotting in PANC-1 cells; assay type: cell-based, human; conditions: treated 48 hours (FIG. 7E)
Method: H-Ras/3T3 cells were treated with (FIG. 7A) different concentrations of LY294002 for 48 hrs or (FIG. 7B) LY294002 (20 μM) for different time intervals. The cells were then lysed and analyzed for RhoB and RhoA protein levels by Western Blotting with anti-RhoB and anti-RhoA; the same filter was re-probed with antiβ-actin for loading control. NIH3T3 cells (FIG. 7C) were transiently transfected with various genes as indicated for 24 hours; and then treated with either DMSO vehicle or LY294002 or 5-FU alone or in combination for another 48 hours. The cells were analyzed for RhoB, RhoA, and β-actin protein levels as described above. […] The cells were analyzed for RhoB and RhoA protein levels by Western Blotting with anti-RhoB and anti-RhoA; the same filter was re-probed with anti-β-actin, anti-HA and anti-pan-Akt antibodies. PANC-1 cells (FIG. 7E) and A549 cells (FIG. 7F) were treated PD, LY or 5-FU as indicated for 48 hours; then analyzed for RhoB and RhoA protein levels by Western Blotting as described above.
Western Blot Analysis. […] Antigen-bound antibody was detected by enhanced chemiluminescence Western blotting kit ([…] […] BIOTECH), Piscataway, N.J.). β-actin was detected as an internal loading control.

NIH3T3 cells = assay: 5-FU-induced apoptosis (Annexin V, flow cytometry) in NIH3T3 cells; assay type: cell-based; conditions: NIH3T3, transfected 24 hours then 5-FU 48 hours (FIG. 10A); control 28-30%
Method: Apoptosis Assay. Cells were collected by trypsinization, washed in wash buffer and stained with Annexin V and 7-AAD according to manufacturer's recommendation (PharMingen, San Diego, Calif.). Data acquisition and analysis was performed by the Flow Cytometry Core Facility at the H. Lee Moffitt Cancer Center (Tampa, Fla.). All the samples were performed in duplicate and a representative of 3 independent experiments were reported here.

RhoB promoter [3] = assay: RhoB promoter transcriptional activity (luciferase reporter) in NIH3T3 cells; assay type: cell-based
Excerpt: Gene Constructs and RhoB Promoter Transcriptional Activity Assay. Constitutively active H-Ras61L, K-RasV12, N-RasV12, and dominant negative […]-Ras were kind gifts from Dr. Channing Der (University of North Carolina) (Khosravi-Far, R. et al., Mol Cell Biol, 1995, 15:6443-53; Quilliam, L. A. et al., Mol Cell Biol, 1994, 14:1113-21). Wild-type RhoA and RhoB were subcloned into hemaglutinin (HA)-tagged pcDNA3 (INVITROGEN). The orientation and the sequences of these genes were confirmed by DNA sequencing facilities at the H. Lee Moffitt Cancer Center, Tampa, Fla. RhoB promoter construct pGEI was kindly provided by Dr Y. Monden (Banyu Tsukuba Research, Japan) (Nakamura et al., 1996). pCMV-β-galactosidase vector was purchased from INVITROGEN. The plasmid containing CA-, DN-PI3K, Mek and Akt were kindly provided by Dr. Julie Y. Djeu (H. Lee Moffitt Cancer and Research Institute, Tampa, Fla.) (Jiang, K. et al., Blood, 2003, 101:236-44). β-galactosidase activity and luciferase assay kits were purchased from PROMEGA Corporation, Madison, Wis. The serum response element (SRE) reporter was provided by Dr. Richard Jove, H. Lee Moffitt Cancer and Research Institute, Tampa, Fla. (Turkson, J. et al., Mol Cell Biol, 1999, 19:7519-28). […] Richard Jove, Oncology program, H. Lee Moffitt Cancer and Research Institute, Tampa, Fla. (Turkson, J. et al., Mol Cell Biol, 1999, 19:7519-28). […] (Luetteke, N. C. et al., Genes Dev, 1994, 8:399-413). DNA transfection was performed with the standard lipofectamine protocol (INVITROGEN). […] After transfection the cells were grown for another 36-48 h. Cells were then washed twice with PBS and lyzed in Promega Passive Lysis Buffer. Aliquots of the lysates were then used to measure the luciferase and β-galactosidase activities. The luciferase values were first divided by β-galactosidase values. The RhoB promoter transcriptional activity was determined by dividing the luciferase/β-Gal values from oncogene-transfected cells by those from pcDNA3-transfected cells. […] All the samples were performed in triplicate and the averages of 3 independent experiments were reported here.

For `O=c1cc(N2CCOCC2)oc2c(-c3ccccc3)cccc12` [LY294002], the “5-FU induction of RhoB promoter activity” value (RhoB promoter [1]; PANC-1 and A-549 cells expressing mutated K-Ras) was “sensitize these cells to 5-FU induction of RhoB promoter activity”, the “induction of RhoB promoter activity” value (RhoB promoter [2]) was 1.7 fold and the “induction of RhoB protein levels” value (RhoB protein levels) was 8 fold.
For `COc1cccc(-c2cc(=O)c3ccccc3o2)c1N` [PD98059], the “induction of RhoB protein levels” value (RhoB protein levels) was “no induction”.
In the case of “Akt: Akt expression construct transfected into NIH3T3 cells”, the “5-FU apoptotic rate after transfection” value (NIH3T3 cells) is reported as 17%.
With ErbB2: human ErbB2 cDNA construct the “inhibition of RhoB promoter activity” value (RhoB promoter [3]; NIH3T3, in the presence of N17-H-Ras) was 18%, the “RhoB Promoter transcriptional activity (% inhibition)” value (RhoB promoter [3]; NIH3T3, transiently transfected 36 hrs, vs pcDNA3 control) was 79 ± 3.9% and the “RhoB Promoter transcriptional activity (% inhibition)” value (RhoB promoter [1]; A549, transiently transfected 36 hrs) was 74 ± 4.3%. For the same compound, the “RhoB Promoter transcriptional activity (% inhibition)” value (RhoB promoter [1]; C33A, transiently transfected 36 hrs) was 69 ± 3.6% and the “RhoB Promoter transcriptional activity (% inhibition)” value (RhoB promoter [1]; PANC1, transiently transfected 36 hrs) was 68 ± 4.1%.
